Laboratory results taken from PubChem BioAssay AID248 (DTP/NCI, 2004).
Inconclusive results and toxic doses are left out.

System: L1210 leukemia ip in BDF1 mice, survival T/C
Assay: NCI In Vivo Anticancer Drug Screen. Data for tumor model L1210 Leukemia (intraperitoneal) in B6D2F1 (BDF1) mice
Conditions: endpoint: mean survival time, higher = longer survival
Outline: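 Transplantable tumor model; survival measured in treated vs vehicle control mice. Value = treated/control.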

[1] = dose: 100.0 mg/kg/injection, schedule: Q01DX009 (ip), vehicle: saline with Tween-80
[2] = dose: 200.0 mg/kg/injection, schedule: Q01DX009 (ip), vehicle: saline with Tween-80
[3] = dose: 400.0 mg/kg/injection, schedule: Q01DX009 (ip), vehicle: saline with Tween-80
[4] = dose: 100.0 mg/kg/injection, schedule: Q01DX001 (ip), vehicle: saline
[5] = dose: 200.0 mg/kg/injection, schedule: Q01DX001 (ip), vehicle: saline
[6] = dose: 400.0 mg/kg/injection, schedule: Q01DX001 (ip), vehicle: saline
[7] = dose: 6.25 mg/kg/injection, schedule: Q01DX009 (ip), vehicle: saline
[8] = dose: 12.5 mg/kg/injection, schedule: Q01DX009 (ip), vehicle: saline
[9] = dose: 25.0 mg/kg/injection, schedule: Q01DX009 (ip), vehicle: saline
[10] = dose: 25.0 mg/kg/injection, schedule: Q04DX003 (ip), vehicle: saline

O=C(O)CCN1C(=O)c2ccccc2C1=O
T/C [1]: 96 % of control | T/C [2]: 95 % of control | T/C [3]: 102 % of control

Cc1ccc(Cl)cc1NC(=O)Oc1ccc(Cl)cc1C
T/C (dose: 12.5 mg/kg/injection, schedule: Q01DX009 (ip), vehicle: Klucel (hydroxypropylcellulose) (HPC)): 95 % of control | T/C (dose: 25.0 mg/kg/injection, schedule: Q01DX009 (ip), vehicle: Klucel (hydroxypropylcellulose) (HPC)): 95 % of control | T/C (dose: 50.0 mg/kg/injection, schedule: Q01DX009 (ip), vehicle: Klucel (hydroxypropylcellulose) (HPC)): 97 % of control | T/C (dose: 100.0 mg/kg/injection, schedule: Q01DX009 (ip), vehicle: Klucel (hydroxypropylcellulose) (HPC)): 96 % of control

CC(C)([CH2][Sn]([Cl])([Cl])[CH2]C(C)(C)c1ccccc1)c1ccccc1
T/C (dose: 0.1 mg/kg/injection, schedule: Q04DX002 (ip), vehicle: saline with Tween-80): 95 % of control | T/C (dose: 0.2 mg/kg/injection, schedule: Q04DX002 (ip), vehicle: saline with Tween-80): 95 % of control | T/C (dose: 0.4 mg/kg/injection, schedule: Q04DX002 (ip), vehicle: saline with Tween-80): 95 % of control | T/C (dose: 0.8 mg/kg/injection, schedule: Q04DX002 (ip), vehicle: saline with Tween-80): 92 % of control | T/C (dose: 3.13 mg/kg/injection, schedule: Q04DX002 (ip), vehicle: saline with Tween-80): 98 % of control

Cn1c(=O)n2n(c1=O)C1C=CC2C2C(Br)C(Br)C21 (configuration not stated)
T/C [1]: 97 % of control | T/C (dose: 100.0 mg/kg/injection, schedule: Q04DX003 (ip), vehicle: saline with Tween-80): 102 % of control | T/C [2]: 101 % of control | T/C (dose: 200.0 mg/kg/injection, schedule: Q04DX003 (ip), vehicle: saline with Tween-80): 94 % of control | T/C [3]: 103 % of control | T/C (dose: 400.0 mg/kg/injection, schedule: Q04DX003 (ip), vehicle: saline with Tween-80): 105 % of control

CC(O)CC(=O)NN (configuration not stated)
T/C [4]: 98 % of control | T/C [5]: 100 % of control | T/C [6]: 93 % of control

CNC(=O)NC(C)(C)CCCCC(C)(C)NC(=O)NC
T/C (dose: 50.0 mg/kg/injection, schedule: Q01DX001 (ip), vehicle: saline): 104 % of control | T/C [4]: 102 % of control | T/C [5]: 93 % of control | T/C [6]: 96 % of control

CC#CC#C/C=C1/C=CC(=O)O1
T/C [7]: 98 % of control | T/C (dose: 6.25 mg/kg/injection, schedule: Q04DX003 (ip), vehicle: saline): 96 % of control | T/C [8]: 105 % of control | T/C (dose: 12.5 mg/kg/injection, schedule: Q04DX003 (ip), vehicle: saline): 103 % of control | T/C [9]: 94 % of control | T/C [10]: 91 % of control

CCCC(=O)Oc1ccc(/C=N/NC(N)=S)nc1
T/C [1]: 119 % of control | T/C (dose: 100.0 mg/kg/injection, schedule: Q04DX002 (ip), vehicle: saline with Tween-80): 113 % of control | T/C [2]: 156 % of control | T/C [3]: 176 % of control | T/C (dose: 600.0 mg/kg/injection, schedule: Q01DX009 (ip), vehicle: saline with Tween-80): 109 % of control

OCCN1CCN(CCCN2c3ccccc3C=Cc3ccccc32)CC1
T/C [7]: 93 % of control | T/C [8]: 93 % of control | T/C [9]: 95 % of control | T/C [10]: 93 % of control | T/C (dose: 50.0 mg/kg/injection, schedule: Q01DX009 (ip), vehicle: saline): 102 % of control | T/C (dose: 50.0 mg/kg/injection, schedule: Q04DX003 (ip), vehicle: saline): 98 % of control | T/C (dose: 100.0 mg/kg/injection, schedule: Q04DX003 (ip), vehicle: saline): 102 % of control

CC(=O)CC(=O)Nc1ccc(C)cc1C
T/C (dose: 100.0 mg/kg/injection, schedule: Q04DX003 (ip), vehicle: Klucel (hydroxypropylcellulose) (HPC)): 102 % of control | T/C (dose: 200.0 mg/kg/injection, schedule: Q04DX003 (ip), vehicle: Klucel (hydroxypropylcellulose) (HPC)): 98 % of control | T/C (dose: 400.0 mg/kg/injection, schedule: Q04DX003 (ip), vehicle: Klucel (hydroxypropylcellulose) (HPC)): 115 % of control

CN(C)S(=O)(=O)c1ccc(NC(=O)OC(C)(c2ccccc2)C2CCCCC2)cc1 (configuration not stated)
T/C [4]: 100 % of control | T/C [5]: 100 % of control | T/C [6]: 97 % of control

Cc1ccc(S(=O)(=O)N(C)CCC(C)C(=O)NN(C)c2ccccc2)cc1 (configuration not stated)
T/C (dose: 75.0 mg/kg/injection, schedule: Q01DX001 (ip), vehicle: saline): 95 % of control | T/C (dose: 150.0 mg/kg/injection, schedule: Q01DX001 (ip), vehicle: saline): 89 % of control | T/C (dose: 300.0 mg/kg/injection, schedule: Q01DX001 (ip), vehicle: saline): 90 % of control
